From PubChem BioAssay AID2060354 (Molecular Pharmacology Branch, DTP, NCI, 2025)

Tested on: 519858-162-T-J1-PDC spheroid growth inhibition
Assay: Anticancer human tumor 519858-162-T-J1-PDC patient-derived colon adenocarcinoma cell line growth inhibition [TAK]
Conditions: spheroids with HUVEC and MSC; for IC50: curve of first compound; for viability, T/C: stronger effect = lower value
Text: Combinatorial screen of targeted agents with TAK-243 and ipatasertib in multi-cell type tumor spheroids
A high-throughput screen of multi-cell type tumor spheroids was designed to identify active combinations of targeted small molecules and TAK-243 or ipatasertib. Complex spheroids include a stromal component modeled by human endothelial cells (HUVEC) and fibroblasts modeled by human mesenchymal stem cells (MSCs). The concentration ranges selected for each drug and investigational agent were based upon clinically achievable concentrations if the clinical Cmax of the agent was known.
Compounds. The drugs and investigational agents: TAK-243 (785004), ipatasertib (767898), everolimus (733504), selumetinib (741078), bortezomib (756655), trametinib (758246), ixazomib (758254), vemurafenib (761431), dabrafenib (764134), sapanisertib (764658), alpelisib (765974), and copanlisib (816437), were obtained from the National Cancer Institute (NCI) Developmental Therapeutics Program Chemical Repository. The FDA-approved anticancer drug set is available from the NCI Developmental Therapeutics Program. […] The stock solutions were prepared in dimethyl sulfoxide (DMSO, Sigma-Aldrich, St. Louis, MO, cat. D2650) at 800-fold the tested concentration and stored at -70 degrees C prior to their use. All drugs and investigational agents were tested over a range starting from a high concentration at or near the clinical Cmax and decreasing in half-log increments. If the clinical Cmax for an agent had not been determined, the highest concentration tested was 10 microM.
NCI60 Cell Culture. NCI60 cell lines were obtained from the NCI Developmental Therapeutics Program Tumor Repository. For each lot of cells, the Repository performed Applied Biosystems AmpFLSTR Identifiler testing with PCR amplification to confirm consistency with the published Identifier STR profile for each cell line. Cells were kept in continuous culture for no more than 20 passages. The optimal seeding densities for each of the cell lines at each time point assessed were determined prior to performing the concentration response studies. Briefly, the NCI60 human tumor lines were grown as monolayers in RPMI 1640 medium supplemented with 10% FBS and 2 mmol/L L-glutamine.
An additional 2 lines were from the NCI60 cell line panel including melanomas, MALME-3M and SK-MEL-2. Pooled donor human umbilical vein endothelial cells (HUVEC, Lonza, cat. CC-2519) and human mesenchymal stem cells (hMSC, Lonza, cat. PT-2501) were purchased from Lonza (Walkersville, MD).
PDMR cell lines were grown in complete medium (DC medium): Dulbecco's modified Eagle's medium (DMEM)/F12 supplemented with 5% fetal bovine serum (FBS), 2 mM L-glutamine, 100 U/mL penicillin and 100 µg/ml streptomycin, 0.4 µg/ml hydrocortisone, 10 ng/ml epidermal growth factor (EGF) recombinant human protein, 24 µg/mL adenine, and 0.1 mg/mL primocin. During culture from frozen stock vials, PDMR cells were cultured in the same medium containing 10 µM Y-27632 (see Table 3). The PDCs were cultured in complete DMEM/F12 media without 10 microM Y-27632 dihydrochloride for at least two passages prior to the screen. The pooled donor HUVEC and hMSC were cultured in endothelial cell growth medium 2 (PromoCell, Heidelberg, Germany, cat. C-22011) and mesenchymal stem cell growth medium 2 (PromoCell, cat. C-28009), respectively. For all experiments, HUVEC and hMSC were used at passages </=5.
For the pre-screen, cell seeding densities were determined from a titration spanning the range from 5,000 to 313 cells per well. The mct-spheroids including 60% malignant cells, 25% HUVEC and 15% MSC dispensed as a mixture into U-bottom Ultra-Low Attachment 384-well plates (Corning, NY)
High-throughput Drug Combination Screening.
Prior to their inoculation into 384-well plates, malignant cells, HUVEC, and hMSC were removed from T flasks using TrypLE express (Thermo Fisher Scientific, cat. 12605036) and harvested by centrifugation for 5 min at 233 x g. […]
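Further: spheroids exposed to drugs for 7 days.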

CCCS(=O)(=O)Nc1ccc(F)c(C(=O)c2c[nH]c3ncc(-c4ccc(Cl)cc4)cc23)c1F + CC(C)NCC(C(=O)N1CCN(c2ncnc3c2C(C)CC3O)CC1)c1ccc(Cl)cc1
IC50 (second compound 0.3 µM): > 100 µM | IC50 (second compound 0.949 µM): > 100 µM | IC50 (second compound 3 µM): > 100 µM | IC50 (second compound 9.49 µM): > 100 µM | IC50 (second compound 30 µM): 30.4 µM | viability, T/C (second compound 0.3 µM, first compound 0.316 µM): 85.8% | viability, T/C (second compound 0.3 µM, first compound 1 µM): 109% | viability, T/C (second compound 0.3 µM, first compound 3.16 µM): 95.8% | viability, T/C (second compound 0.3 µM, first compound 10 µM): 109% | viability, T/C (second compound 0.3 µM, first compound 31.6 µM): 90.6% | viability, T/C (second compound 0.3 µM, first compound 100 µM): 103% | viability, T/C (second compound 0.949 µM, first compound 0.316 µM): 74.8% | viability, T/C (second compound 0.949 µM, first compound 1 µM): 99.7% | viability, T/C (second compound 0.949 µM, first compound 3.16 µM): 118% | viability, T/C (second compound 0.949 µM, first compound 10 µM): 83.1% | viability, T/C (second compound 0.949 µM, first compound 31.6 µM): 51% | viability, T/C (second compound 0.949 µM, first compound 100 µM): 99.9% | viability, T/C (second compound 3 µM, first compound 0.316 µM): 106% | viability, T/C (second compound 3 µM, first compound 1 µM): 102% | viability, T/C (second compound 3 µM, first compound 3.16 µM): 114% | viability, T/C (second compound 3 µM, first compound 10 µM): 82.8% | viability, T/C (second compound 3 µM, first compound 31.6 µM): 99.8% | viability, T/C (second compound 3 µM, first compound 100 µM): 113% | viability, T/C (second compound 9.49 µM, first compound 0.316 µM): 99.8% | viability, T/C (second compound 9.49 µM, first compound 1 µM): 103% | viability, T/C (second compound 9.49 µM, first compound 3.16 µM): 84.8% | viability, T/C (second compound 9.49 µM, first compound 10 µM): 88.1% | viability, T/C (second compound 9.49 µM, first compound 31.6 µM): 77.9% | viability, T/C (second compound 9.49 µM, first compound 100 µM): 96% | viability, T/C (second compound 30 µM, first compound 0.316 µM): 76.3% | viability, T/C (second compound 30 µM, first compound 1 µM): 101% | viability, T/C (second compound 30 µM, first compound 3.16 µM): 94.9% | viability, T/C (second compound 30 µM, first compound 10 µM): 61% | viability, T/C (second compound 30 µM, first compound 31.6 µM): 23.6% | viability, T/C (second compound 30 µM, first compound 100 µM): 75.5%
